According to publication PMC7156458, “Synthetic biology based construction of biological activity-related library of fungal decalin-containing diterpenoid pyrones” (Nature Communications, 2020):

Target: Aβ42 (Homo sapiens, UniProt P05067)
Experiment: Th-T (thioflavin-T) assay of Aβ42 aggregation
Assay type: biochemical
Settings: for Th-T assay plate reading, mean of three wells (Supplementary Fig. 47): source data, Ab alone and No Ab as controls

Chain of Aβ42 (P05067 672-713): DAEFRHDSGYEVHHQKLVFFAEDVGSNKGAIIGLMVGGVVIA

Th-T fluorescence, mean of three wells (Aβ42 aggregation time course, reading M117): 3.606
Th-T fluorescence, mean of three wells (Aβ42 aggregation time course, reading M118): 3.615
Th-T fluorescence, mean of three wells (Aβ42 aggregation time course, reading M119): 3.596
Th-T fluorescence, mean of three wells (Aβ42 aggregation time course, reading M120): 3.613
Th-T fluorescence, mean of three wells (Aβ42 aggregation time course, reading M121): 3.583
Th-T fluorescence, mean of three wells (Aβ42 aggregation time course, reading M122): 3.577
Th-T fluorescence, mean of three wells (Aβ42 aggregation time course, reading M123): 3.546
Th-T fluorescence, mean of three wells (Aβ42 aggregation time course, reading M124): 3.572
Th-T fluorescence, mean of three wells (Aβ42 aggregation time course, reading M125): 3.555
Th-T fluorescence, mean of three wells (Aβ42 aggregation time course, reading M126): 3.529
Th-T fluorescence, mean of three wells (Aβ42 aggregation time course, reading M127): 3.54
Th-T fluorescence, mean of three wells (Aβ42 aggregation time course, reading M128): 3.504
Th-T fluorescence, mean of three wells (Aβ42 aggregation time course, reading M129): 3.564
Th-T fluorescence, mean of three wells (Aβ42 aggregation time course, reading M130): 3.54
Th-T fluorescence, mean of three wells (Aβ42 aggregation time course, reading M131): 3.5322
Th-T fluorescence, mean of three wells (Aβ42 aggregation time course, reading M132): 3.554
Th-T fluorescence, mean of three wells (Aβ42 aggregation time course, reading M133): 3.505
Th-T fluorescence, mean of three wells (Aβ42 aggregation time course, reading M134): 3.525
Th-T fluorescence, mean of three wells (Aβ42 aggregation time course, reading M135): 3.538
Th-T fluorescence, mean of three wells (Aβ42 aggregation time course, reading M136): 3.5303
Th-T fluorescence, mean of three wells (Supplementary Fig. 47, reading M137): 3.5763
Th-T fluorescence, mean of three wells (Supplementary Fig. 47, reading M138): 3.512
Th-T fluorescence, mean of three wells (Supplementary Fig. 47, reading M139): 3.524
Th-T fluorescence, mean of three wells (Supplementary Fig. 47, reading M140): 3.521
Th-T fluorescence, mean of three wells (Supplementary Fig. 47, reading M141): 3.497
Th-T fluorescence, mean of three wells (Supplementary Fig. 47, reading M142): 3.5241
Th-T fluorescence, mean of three wells (Supplementary Fig. 47, reading M143): 3.477
Th-T fluorescence, mean of three wells (Supplementary Fig. 47, reading M144): 3.474
Th-T fluorescence, mean of three wells (Supplementary Fig. 47, reading M145): 3.514
Th-T fluorescence, mean of three wells (Supplementary Fig. 47 source data, measurement M37 of time course): 3.725
Th-T fluorescence, mean of three wells (Supplementary Fig. 47 source data, measurement M38 of time course): 3.672
Th-T fluorescence, mean of three wells (Supplementary Fig. 47 source data, measurement M39 of time course): 3.686
Th-T fluorescence, mean of three wells (Supplementary Fig. 47 source data, measurement M40 of time course): 3.696
Th-T fluorescence, mean of three wells (Supplementary Fig. 47 source data, measurement M41 of time course): 3.723
Th-T fluorescence, mean of three wells (Supplementary Fig. 47 source data, measurement M42 of time course): 3.705
Th-T fluorescence, mean of three wells (Supplementary Fig. 47 source data, measurement M43 of time course): 3.698
Th-T fluorescence, mean of three wells (Supplementary Fig. 47 source data, measurement M44 of time course): 3.759
Th-T fluorescence, mean of three wells (Supplementary Fig. 47 source data, measurement M45 of time course): 3.771
Th-T fluorescence, mean of three wells (Supplementary Fig. 47 source data, measurement M46 of time course): 3.76
Th-T fluorescence, mean of three wells (Supplementary Fig. 47 source data, measurement M47 of time course): 3.73
Th-T fluorescence, mean of three wells (Supplementary Fig. 47 source data, measurement M48 of time course): 3.764
Th-T fluorescence, mean of three wells (Supplementary Fig. 47 source data, measurement M49 of time course): 3.767
Th-T fluorescence, mean of three wells (Supplementary Fig. 47 source data, measurement M50 of time course): 3.788
Th-T fluorescence, mean of three wells (Supplementary Fig. 47 source data, measurement M51 of time course): 3.755
Th-T fluorescence, mean of three wells (Supplementary Fig. 47 source data, measurement M52 of time course): 3.752
Th-T fluorescence, mean of three wells (Supplementary Fig. 47 source data, measurement M53 of time course): 3.724
Th-T fluorescence, mean of three wells (Supplementary Fig. 47 source data, measurement M54 of time course): 3.756
Th-T fluorescence, mean of three wells (Supplementary Fig. 47 source data, measurement M55 of time course): 3.771
Th-T fluorescence, mean of three wells (Supplementary Fig. 47 source data, measurement M56 of time course): 3.762
Th-T assay plate reading, mean of three wells (Supplementary Fig. 47) (measurement M1): 0.2149
Th-T assay plate reading, mean of three wells (Supplementary Fig. 47) (measurement M2): 0.2276
Th-T assay plate reading, mean of three wells (Supplementary Fig. 47) (measurement M3): 0.2865
Th-T assay plate reading, mean of three wells (Supplementary Fig. 47) (measurement M4): 0.3444
Th-T assay plate reading, mean of three wells (Supplementary Fig. 47) (measurement M5): 0.4109
Th-T assay plate reading, mean of three wells (Supplementary Fig. 47) (measurement M6): 0.436
Th-T assay plate reading, mean of three wells (Supplementary Fig. 47) (measurement M7): 0.4804
Th-T assay plate reading, mean of three wells (Supplementary Fig. 47) (measurement M8): 0.5318
Th-T assay plate reading, mean of three wells (Supplementary Fig. 47) (measurement M9): 0.5868
Th-T assay plate reading, mean of three wells (Supplementary Fig. 47) (measurement M10): 0.6365
Th-T assay plate reading, mean of three wells (Supplementary Fig. 47) (measurement M11): 0.7058
Th-T assay plate reading, mean of three wells (Supplementary Fig. 47) (measurement M12): 0.8261
Th-T assay plate reading, mean of three wells (Supplementary Fig. 47) (measurement M13): 1.145
Th-T assay plate reading, mean of three wells (Supplementary Fig. 47) (measurement M14): 1.723
Th-T assay plate reading, mean of three wells (Supplementary Fig. 47) (measurement M15): 2.352
Th-T assay plate reading, mean of three wells (Supplementary Fig. 47) (measurement M16): 2.814
Th-T fluorescence, mean of three wells (reading M17, Supplementary Fig. 47 source data): 3.101
Th-T fluorescence, mean of three wells (reading M18, Supplementary Fig. 47 source data): 3.246
Th-T fluorescence, mean of three wells (reading M19, Supplementary Fig. 47 source data): 3.285
Th-T fluorescence, mean of three wells (reading M20, Supplementary Fig. 47 source data): 3.357
Th-T fluorescence, mean of three wells (reading M21, Supplementary Fig. 47 source data): 3.385
Th-T fluorescence, mean of three wells (reading M22, Supplementary Fig. 47 source data): 3.422
Th-T fluorescence, mean of three wells (reading M23, Supplementary Fig. 47 source data): 3.453
Th-T fluorescence, mean of three wells (reading M24, Supplementary Fig. 47 source data): 3.499
Th-T fluorescence, mean of three wells (reading M25, Supplementary Fig. 47 source data): 3.518
Th-T fluorescence, mean of three wells (reading M26, Supplementary Fig. 47 source data): 3.525
Th-T fluorescence, mean of three wells (reading M27, Supplementary Fig. 47 source data): 3.564
Th-T fluorescence, mean of three wells (reading M28, Supplementary Fig. 47 source data): 3.572
Th-T fluorescence, mean of three wells (reading M29, Supplementary Fig. 47 source data): 3.591
Th-T fluorescence, mean of three wells (reading M30, Supplementary Fig. 47 source data): 3.63
Th-T fluorescence, mean of three wells (reading M31, Supplementary Fig. 47 source data): 3.6544
Th-T fluorescence, mean of three wells (reading M32, Supplementary Fig. 47 source data): 3.711
Th-T fluorescence, mean of three wells (reading M33, Supplementary Fig. 47 source data): 3.704
Th-T fluorescence, mean of three wells (reading M34, Supplementary Fig. 47 source data): 3.671
Th-T fluorescence, mean of three wells (reading M35, Supplementary Fig. 47 source data): 3.708
Th-T fluorescence, mean of three wells (reading M36, Supplementary Fig. 47 source data): 3.706
Th-T fluorescence, mean of three wells (time course, reading M57): 3.709
Th-T fluorescence, mean of three wells (time course, reading M58): 3.763
Th-T fluorescence, mean of three wells (time course, reading M59): 3.775
Th-T fluorescence, mean of three wells (time course, reading M60): 3.734
Th-T fluorescence, mean of three wells (time course, reading M61): 3.716
Th-T fluorescence, mean of three wells (time course, reading M62): 3.783
Th-T fluorescence, mean of three wells (time course, reading M63): 3.7203
Th-T fluorescence, mean of three wells (time course, reading M64): 3.6972
Th-T fluorescence, mean of three wells (time course, reading M65): 3.735
Th-T fluorescence, mean of three wells (time course, reading M66): 3.755
Th-T fluorescence, mean of three wells (time course, reading M67): 3.725
Th-T fluorescence, mean of three wells (time-course reading M97, Supplementary Fig. 47 source data): 3.595
Th-T fluorescence, mean of three wells (time-course reading M98, Supplementary Fig. 47 source data): 3.647
Th-T fluorescence, mean of three wells (time-course reading M99, Supplementary Fig. 47 source data): 3.679
Th-T fluorescence, mean of three wells (time-course reading M100, Supplementary Fig. 47 source data): 3.653
Th-T fluorescence, mean of three wells (time-course reading M101, Supplementary Fig. 47 source data): 3.662
Th-T fluorescence, mean of three wells (time-course reading M102, Supplementary Fig. 47 source data): 3.581
Th-T fluorescence, mean of three wells (time-course reading M103, Supplementary Fig. 47 source data): 3.611
Th-T fluorescence, mean of three wells (time-course reading M104, Supplementary Fig. 47 source data): 3.626
Th-T fluorescence, mean of three wells (time-course reading M105, Supplementary Fig. 47 source data): 3.605
Th-T fluorescence, mean of three wells (time-course reading M106, Supplementary Fig. 47 source data): 3.616
Th-T fluorescence, mean of three wells (time-course reading M107, Supplementary Fig. 47 source data): 3.656
Th-T fluorescence, mean of three wells (time-course reading M108, Supplementary Fig. 47 source data): 3.6
Th-T fluorescence, mean of three wells (time-course reading M109, Supplementary Fig. 47 source data): 3.632
Th-T fluorescence, mean of three wells (time-course reading M110, Supplementary Fig. 47 source data): 3.606
Th-T fluorescence, mean of three wells (time-course reading M111, Supplementary Fig. 47 source data): 3.628
Th-T fluorescence, mean of three wells (time-course reading M112, Supplementary Fig. 47 source data): 3.629
Th-T fluorescence, mean of three wells (time-course reading M113, Supplementary Fig. 47 source data): 3.58
Th-T fluorescence, mean of three wells (time-course reading M114, Supplementary Fig. 47 source data): 3.62
Th-T fluorescence, mean of three wells (time-course reading M115, Supplementary Fig. 47 source data): 3.596
Th-T fluorescence, mean of three wells (time-course reading M116, Supplementary Fig. 47 source data): 3.5953
Compound: C=C1CCC2C(C)(CC(=O)C=C(C)C)C(O)CCC2(C)C1Cc1c(OC)oc(C)c(C)c1=O (centres unmarked) [Compound 25]
